The assay deals with T1, PIP4K2C (Homo sapiens, UniProt Q8TBX8).
T1 sequence (Q8TBX8 1-421): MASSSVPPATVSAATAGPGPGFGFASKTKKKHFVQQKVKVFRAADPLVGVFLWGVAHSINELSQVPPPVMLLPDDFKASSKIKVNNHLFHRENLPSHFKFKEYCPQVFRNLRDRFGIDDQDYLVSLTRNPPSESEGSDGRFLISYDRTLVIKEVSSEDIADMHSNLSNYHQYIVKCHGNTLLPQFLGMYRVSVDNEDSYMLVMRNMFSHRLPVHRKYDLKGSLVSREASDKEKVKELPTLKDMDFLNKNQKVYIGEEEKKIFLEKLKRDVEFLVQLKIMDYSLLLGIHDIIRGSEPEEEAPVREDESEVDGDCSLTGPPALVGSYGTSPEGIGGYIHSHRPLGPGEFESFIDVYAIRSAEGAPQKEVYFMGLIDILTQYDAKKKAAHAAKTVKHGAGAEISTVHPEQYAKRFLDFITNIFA
Description: Enzyme Binding Assay (KINOMEscan): active site-directed competition binding to an immobilized ligand. Further details: purchased Eurofins DiscoverX, San Diego, CA 87-0007-1094. The following applies: 11-point dose response, duplicate, top concentration 5 micromolar; read-out: Pip4k2c Kd: IC50. A digest of the protocol: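 IC50 values come from Hill-equation fits (Levenberg-Marquardt) to 11-point duplicate titrations starting at 5 micromolar. Read-out is competition of compound with an immobilized ligand for the kinase active site.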
As usually defined, the IC50 is the concentration needed to halve the response being measured. Take `NC(=O)[C@H]1CC[C@H](Nc2ncc(F)c(-c3cccc(N4CCCOC4=O)c3)n2)CC1` [Compound 236, trans-4-((5-fluoro-4-(3-(2-oxo-1,3-oxazinan-3-yl)phenyl)pyrimidin-2-yl)amino)cyclohexane-1-carboxamide]: the IC50 was below 500 nM.
Take `CNC(=O)[C@H]1C[C@@H](Nc2ncc(Cl)c(-c3cnn(C4CC4)c3)n2)C1` [Compound 97, cis-3-((5-chloro-4-(1-cyclopropyl-1H-pyrazol-4-yl)pyrimidin-2-yl)amino)-N-methylcyclobutane-1-carboxamide]: the IC50 was below 500 nM.
On to `CNC(=O)[C@H]1CC[C@H](Nc2ncc(Cl)c(-c3cccc(-c4ccc(F)cc4)n3)n2)CC1` [Compound 159, trans-(1r,4r)-4-((5-chloro-4-(6-(4-fluorophenyl)pyridin-2-yl)pyrimidin-2-yl)amino)-N-methylcyclohexane-1-carboxamide], for which the IC50 was below 500 nM.
`NC(=O)[C@H]1CCC[C@@H](Nc2ncc(F)c(-c3cccc(N4CCCOC4=O)c3)n2)C1` (relative stereo) [Compound 227, cis-3-((5-fluoro-4-(3-(2-oxo-1,3-oxazinan-3-yl)phenyl)pyrimidin-2-yl)amino)cyclohexane-1-carboxamide]: the IC50 was below 500 nM.
Consider `CC(=O)N[C@H]1CC[C@H](Nc2ncc(F)c(-c3ccnc(N4CCCOC4=O)c3)n2)CC1` [Compound 266, trans-N-(4-((5-fluoro-4-(2-(2-oxo-1,3-oxazinan-3-yl)pyridin-4-yl)pyrimidin-2-yl)amino)cyclohexyl)acetamide], for which the IC50 was below 500 nM.
With `CC(=O)N1CCC(Nc2ncc(F)c(-c3cccc(N4CCOCC4=O)n3)n2)CC1` [Compound 630, 4-(6-(2-((1-acetylpiperidin-4-yl)amino)-5-fluoropyrimidin-4-yl)pyridin-2-yl)morpholin-3-one], the IC50 was below 500 nM.
In the case of `CC(=O)N1CCC(Nc2ncc(F)c(-c3cccc(C(=O)N4CCC(O)(CN)CC4)c3)n2)CC1` [Compound 218, 1-(4-((4-(3-(4-(aminomethyl)-4-hydroxypiperidine-1-carbonyl)phenyl)-5-fluoropyrimidin-2-yl)amino)piperidin-1-yl)ethan-1-one], the IC50 is below 500 nM.
As to `NC(=O)[C@H]1CC[C@H](Nc2ncc(F)c(-c3cccc(N4CCCCC4)c3)n2)CC1` [Compound 615, trans-4-((5-fluoro-4-(3-(piperidin-1-yl)phenyl)pyrimidin-2-yl)amino)cyclohexane-1-carboxamide], the IC50 is below 500 nM.
The result for `CN1CC(Nc2ncc(Cl)c(-c3cccc(-c4ccccc4)c3)n2)CCC1=O` (stereo not drawn) [Compound 14, 5-((4-([1,1′-biphenyl]-3-yl)-5-chloropyrimidin-2-yl)amino)-1-methylpiperidin-2-one] reads below 500 nM.
Regarding `CNC(=O)[C@H]1CC[C@H](Nc2ncc(Cl)c(-c3ccnc(-c4ccc(F)cc4)c3)n2)CC1` [Compound 160, trans-(1r,4r)-4-((5-chloro-4-(2-(4-fluorophenyl)pyridin-4-yl)pyrimidin-2-yl)amino)-N-methylcyclohexane-1-carboxamide], the half-maximal inhibitory concentration (IC50) is below 500 nM.
On to `CC(=O)N[C@H]1CC[C@H](Nc2ncc(Cl)c(-c3cnn(-c4ccc[nH]c4=O)c3)n2)CC1` [Compound 149, trans-N-((1r,4r)-4-((5-chloro-4-(1-(2-oxo-1,2-dihydropyridin-3-yl)-1H-pyrazol-4-yl)pyrimidin-2-yl)amino)cyclohexyl)acetamide], for which the IC50 was below 500 nM.
Turning to `CC(=O)N[C@H]1CC[C@H](Nc2ncc(F)c(-c3ccnc(N4CCCCC4=O)c3)n2)CC1` [Compound 257, trans-N-(-4-((5-fluoro-4-(2-(2-oxopiperidin-1-yl)pyridin-4-yl)pyrimidin-2-yl)amino)cyclohexyl)acetamide], the IC50 was below 500 nM.
Take `CC(=O)N1CCC(Nc2ncc(F)c(-c3cccc(N4CCC(O)CC4)c3)n2)CC1` [Compound 211, 1-(4-((5-fluoro-4-(3-(4-hydroxypiperidin-1-yl)phenyl)pyrimidin-2-yl)amino)piperidin-1-yl)ethan-1-one]: the IC50 is below 500 nM.
As to `CC(=O)N1CCC(Nc2ncc(F)c(-c3ccnc(C(C)(C)O)c3)n2)CC1` [Compound 172, 1-(4-((5-fluoro-4-(2-(2-hydroxypropan-2-yl)pyridin-4-yl)pyrimidin-2-yl)amino)piperidin-1-yl)ethan-1-one], the IC50 is below 500 nM.
On to `CNC(=O)[C@H]1C[C@@H](Nc2ncc(Cl)c(-c3cccc(-c4ccc[nH]c4=O)c3)n2)C1` [Compound 156, cis-3-((5-chloro-4-(3-(2-oxo-1,2-dihydropyridin-3-yl)phenyl)pyrimidin-2-yl)amino)-N-methylcyclobutane-1-carboxamide], for which the IC50 was below 500 nM.
For `CC(=O)N[C@H]1CC[C@H](Nc2ncc(Cl)c(-c3cnn(-c4ccc(F)cc4)c3)n2)CC1` [Compound 121, trans-N-((1r,4r)-4-((5-chloro-4-(1-(4-fluorophenyl)-1H-pyrazol-4-yl)pyrimidin-2-yl)amino)cyclohexyl)acetamide], the IC50 was below 500 nM.
With `CC(=O)N1CCC(Nc2ncc(Cl)c(-c3cnn(-c4ccc[nH]c4=O)c3)n2)CC1` [Compound 111, 3-(4-(2-((1-acetylpiperidin-4-yl)amino)-5-chloropyrimidin-4-yl)-1H-pyrazol-1-yl)pyridin-2(1H)-one], the IC50 was below 500 nM.
For the compound `CC(=O)N1CCC[C@H](Nc2ncc(Cl)c(N3CCCC(c4ccccc4)C3)n2)C1` (stereo partly drawn) [Compound 35, 1-((3S)-3-((5-chloro-4-(3-phenylpiperidin-1-yl)pyrimidin-2-yl)amino)piperidin-1-yl) ethan-1-one], the IC50 was below 500 nM.
For `NC(=O)[C@H]1CC[C@H](Nc2ncc(F)c(-c3cccc(N4CCOC4=O)c3)n2)CC1` [Compound 245, trans-4-((5-fluoro-4-(3-(2-oxooxazolidin-3-yl)phenyl)pyrimidin-2-yl)amino)cyclohexane-1-carboxamide], the IC50 was below 500 nM.
The result for `CC(=O)N1CCC(Nc2ncc(F)c(N3CCCC(c4ccc(=O)[nH]c4)C3)n2)CC1` (stereo not drawn) [Compound 199, 5-(1-(2-((1-acetylpiperidin-4-yl)amino)-5-fluoropyrimidin-4-yl)piperidin-3-yl)pyridin-2(1H)-one] reads 500 to 1000 nM; that for `CC(=O)N1CCC[C@H](Nc2ncc(Cl)c(-c3cccc(-c4ccccc4)c3)n2)C1` [Compound 18, (S)-1-(3-((4-([1,1′-biphenyl]-3-yl)-5-chloropyrimidin-2-yl)amino)piperidin-1-yl)ethan-1-one], below 500 nM.
For `CC(=O)N[C@H]1CC[C@@H](Nc2ncc(Cl)c(-c3cccc(-c4ccccc4)c3)n2)CC1` [Compound 31, N-(cis-4-((4-([1,1′-biphenyl]-3-yl)-5-chloropyrimidin-2-yl)amino)cyclohexyl)acetamide], the IC50 lay in the range of 500 to 1000 nM.
In the case of `O=C(C1CCC2(CCNCC2)CC1)N1CCC(Nc2ncc(Cl)c(-c3cccc(-c4ccccc4)c3)n2)CC1` [Compound 11, (4-((4-([1,1′-biphenyl]-3-yl)-5-chloropyrimidin-2-yl)amino)piperidin-1-yl)(3-azaspiro[5.5]undecan-9-yl)methanone], the IC50 is below 500 nM.
With `CC(=O)N[C@H]1CC[C@H](Nc2ncc(Cl)c(-c3cnn(-c4cc[nH]c(=O)c4)c3)n2)CC1` [Compound 147, trans-N-((1r,4r)-4-((5-chloro-4-(1-(2-oxo-1,2-dihydropyridin-4-yl)-1H-pyrazol-4-yl)pyrimidin-2-yl)amino)cyclohexyl)acetamide], the IC50 was below 500 nM.
As to `CNC(=O)[C@H]1CC[C@H](Nc2ncc(Cl)c(-c3cc(C4CC4)[nH]n3)n2)CC1` [Compound 144, trans-(1r,4r)-4-((5-chloro-4-(5-cyclopropyl-1H-pyrazol-3-yl)pyrimidin-2-yl)amino)-N-methylcyclohexane-1-carboxamide], the IC50 fell in the range of 1000 to 5000 nM.
In the case of `CNC(=O)[C@H]1C[C@H](Nc2ncc(Cl)c(-c3cnn(-c4ccc(=O)[nH]c4)c3)n2)C1` [Compound 119, trans-(1r,3r)-3-((5-chloro-4-(1-(6-oxo-1,6-dihydropyridin-3-yl)-1H-pyrazol-4-yl)pyrimidin-2-yl)amino)-N-methylcyclobutane-1-carboxamide], the IC50 was below 500 nM.
For `NC(=O)[C@H]1CC[C@H](Nc2ncc(F)c(-c3cccc(C4CC4)c3)n2)CC1` [Compound 618, trans-(1r,4r)-4-((4-(3-cyclopropylphenyl)-5-fluoropyrimidin-2-yl)amino)cyclohexane-1-carboxamide], the IC50 was below 500 nM.
For `CC(=O)N1CCC(Nc2ncc(F)c(-c3cccc(N4CCOCC4=O)c3)n2)CC1` [Compound 206, 4-(3-(2-((1-acetylpiperidin-4-yl)amino)-5-fluoropyrimidin-4-yl)phenyl)morpholin-3-one], the IC50 is below 500 nM.
Take `NC(=O)[C@H]1CC[C@H](Nc2ncc(F)c(-c3cccc(N4CCCCC4=O)c3)n2)CC1` [Compound 264, trans-4-((5-fluoro-4-(3-(2-oxopiperidin-1-yl)phenyl)pyrimidin-2-yl)amino)cyclohexane-1-carboxamide]: the IC50 was below 500 nM.
Consider `CC(=O)N[C@H]1CC[C@@H](Nc2ncc(Cl)c(-c3cccc(-c4ccc(F)cc4)n3)n2)CC1` [Compound 130, cis-N-((1s,4s)-4-((5-chloro-4-(6-(4-fluorophenyl)pyridin-2-yl)pyrimidin-2-yl)amino)cyclohexyl)acetamide], for which the IC50 was below 500 nM.

Source of the values: patent US20260355196A1, “INHIBITORS AND DEGRADERS OF PIP4K PROTEIN” (Larkspur Biosciences, Inc., priority 2023, published 2026).
